Where two headings read alike, the source gives them in different places.
Columns and labels:
[1] = biological target: T1, CB1 receptor (Homo sapiens, UniProt P21554); test: [11C]MePPEP PET, VT by rank shaping regularised spectral analysis (RS-SA); assay type: in vivo; design: VT median: unit not given beside the values
T1 construct: assess the stability of CB1-receptor quantification in humans in vivo; from tissue; host or cells: living human brain (healthy volunteers), in vivo PET
Description: (§1) Continuous and intermittent blood samples were collected to allow the subsequent generation of metabolite-corrected arterial plasma time–activity curves (TACs) ([Hammers et al., 2008]). During the first 15 min blood was withdrawn continuously at a rate of 300 ml/h and radioactivity measured in a BGO detection system ([Jones et al., 1994]). To quantify plasma and whole blood radioactivity, as well as to allow quantification of the parent fraction of the radiotracer, intermittent discrete (10 ml) samples were taken with heparinised syringes before the scan (baseline) and at the following time points after scan start: 3, 5, 10, 15, 20, 30, and 50 min. At 75 min, a larger 17 ml sample was taken to allow quantification despite radioactivity decay. […] Continuous plasma input functions (IF) were derived by cross-calibration and combination of the continuous and discrete data, multiplication with the fitted plasma-over-blood ratio, and correction for parent radiotracer fraction, as described in detail in previous studies ([Hammers et al., 2007a], [Jones et al., 1994]).
VT values were generated directly from dynamic data sampled using ROIs with rank shaping (RS; orthogonalized-functional-base) regularisation of SA ([Turkheimer et al., 2003]) using in-house “Clickfit” software. As previously described by [Turkheimer et al. (2003)], we used the metabolite-corrected IF, a logarithmically spaced basis, an exponential range of bases extending to − 3.2, and the regional tissue TAC. TACs were weighted according to ([Gunn et al., 1998]):(3) Wi=Li/Tiforframei=1,2,3…35 [wi — weight for frame i; Li — length of frame i (seconds); and Ti — rate of true coincidences (per second)].
The VT for each ROI was then obtained as the plateau of the VT(R), where R is the expected signal-to noise ratio that is used as the regularisation parameter (R) in rank-shaping (Fig. 2; ([Turkheimer et al., 2003])).

[2] = biological target: T1, CB1 receptor; test: [11C]MePPEP PET, modified standard uptake values (mSUV); assay type: in vivo; settings: ~30–60 min after injection
Description: Modified standard uptake values (mSUVs; [Innis et al., 2007]) for frames 25–31, i.e. from 29 min 50 s to 58 min 50 s after injection, were also derived for the ROIs according to ([Goffin et al., 2011]):(4) activity×weightkg+70kg/2/injecteddose.

[3] = test system: CB1 receptor; design: method as in Terry et al., 2008, Terry et al., 2010b, Yasuno et al., 2008; settings: monkey brain, ref Terry et al., 2008, Terry et al., 2010b, Yasuno et al.; cited from earlier work
[4] = biological target: T1, CB1 receptor; test: [11C]MePPEP PET, VT by reversible two-compartment model with variable blood volume (2kbv); assay type: in vivo
Description: as §1
In this model, three microparameters are derived: K1 is the influx of the ligand from the plasma to the tissue compartment containing free, non-specifically bound, and specifically bound ligand, k2 is the efflux constant from the ROI back to plasma ([Cunningham et al., 1991], [Huang et al., 1980]), and bv is a variable blood volume term. VT is then calculated according to the compartmental model equation ([Watabe et al., 2006]):(1) VT=K1/k2.

[5] = test system: CB1 receptor; design: method as in Terry et al., 2008, Terry et al., 2010b, Yasuno et al., 2008; settings: determined using CB1 knockout mouse brain, ref Terry et al., 2008, Terry et al., 2010b, Yasuno et al.; cited from earlier work
[6] = biological target: T1, CB1 receptor; test: [11C]MePPEP PET, VT by reversible three-compartment model with variable blood volume (4kbv); assay type: in vivo; design: unit not given beside the values
Description: as §1
K1 and k2 were calculated as for the 2kbv compartmental model described above; in addition, two additional rate constants were estimated to describe transfer relating to the third compartment: k3, which describes the transfer from the free and non-specifically bound compartment to the specifically bound (third) compartment; and k4, which describes the opposite transfer ([Cunningham et al., 1991], [Huang et al., 1980]). Again, a variable blood volume term was also computed. According to compartmental model equations ([Gunn et al., 2001], [Watabe et al., 2006]):(2) VT=K1/k21+k3/k4.

[7] = biological target: T1, CB1 receptor; test: [11C]MePPEP PET, VT by classic spectral analysis parametric maps (SA-maps); assay type: in vivo
Description: as §1
The resulting parametric maps of VT values were then sampled in the eight selected ROIs.

[8] = biological target: T1, CB1 receptor; test: [11C]MePPEP PET, VT by classic spectral analysis on ROI data (SA-ROIs); assay type: in vivo; design: unit not given beside the values
Description: as §1
Volumes of distribution (VTs) ([Innis et al., 2007]) for each ROI were obtained from the dynamic images and the metabolite-corrected IFs using spectral analysis (SA) ([Cunningham and Jones, 1993], [Cunningham et al., 1993], [Turkheimer et al., 1994]). The fast frequency boundary was kept at the default value of 0.1 s^− 1. […] Based on previous work with another tracer with relatively slow kinetics ([Hammers et al., 2007a]), we changed this to 0.00063 s^− 1 (log10 = − 3.20) in order to reduce noise.

[9] = design: method as in Terry et al., 2010a; settings: 370 MBq injected; ref Terry et al., 2010a; cited from earlier work

T1 sequence (P21554 whole entry): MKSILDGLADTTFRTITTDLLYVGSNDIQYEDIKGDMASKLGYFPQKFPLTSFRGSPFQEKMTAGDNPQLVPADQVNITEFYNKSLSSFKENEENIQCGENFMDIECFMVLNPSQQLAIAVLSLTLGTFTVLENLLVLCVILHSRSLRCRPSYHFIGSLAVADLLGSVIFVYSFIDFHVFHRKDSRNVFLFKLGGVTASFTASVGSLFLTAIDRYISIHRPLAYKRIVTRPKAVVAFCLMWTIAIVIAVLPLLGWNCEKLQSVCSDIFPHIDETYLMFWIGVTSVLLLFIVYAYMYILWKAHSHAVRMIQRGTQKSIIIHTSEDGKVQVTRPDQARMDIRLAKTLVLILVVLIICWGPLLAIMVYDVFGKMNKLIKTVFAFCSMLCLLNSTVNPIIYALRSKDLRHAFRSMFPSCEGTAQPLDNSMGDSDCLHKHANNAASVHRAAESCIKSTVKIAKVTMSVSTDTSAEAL

Compound: COc1cccc([C@H]2C[C@@H](N[C@H](C)c3ccccc3)C(=O)N2c2ccc(C(F)(F)F)cc2)c1 [[^11C]MePPEP, (3R,5R)-5-(3-methoxy-phenyl)-3-((R)-1-phenyl-ethylamino)-1-(4-trifluoro-methyl-phenyl)-pyrrolidin-2-one]
- VT median ([1]; ACG): 9.9
- VT from VT(R) plateau, example plot ([1]; Hippocampus, single example): 12
- VT median ([1]; IFG): 9.9
- VT median ([1]; Pallidum): 10.3
- VT median ([1]; Pons): 4.3
- VT median ([1]; Thalamus): 6.5
- mSUV median ([2]; ACG): 3.2
- mSUV median ([2]; Accumbens): 3.0
- mSUV median ([2]; Caudate): 2.9
- mSUV median ([2]; IFG): 3.2
- mSUV median ([2]; Pons): 0.9
- specific binding [3]: > 85%
- VT median ([4]; ACG): 10.3
- VT median ([4]; Hippocampus): 8.0
- VT median ([4]; Pallidum): 10.8
- VT median ([4]; Pons): 3.0
- VT median ([4]; Thalamus): 5.1
- specific binding [5]: 65%
- VT median ([6]; ACG): 9.0
- VT median ([6]; Accumbens): 13.6
- VT median ([6]; Caudate): 6.2
- VT median ([6]; Hippocampus): 13.4
- VT median ([6]; Pallidum): 10.6
- VT median ([6]; Pons): 5.3
- VT median ([6]; Thalamus): 6.1
- VT median ([7]; ACG): 14.8
- VT median ([7]; Caudate): 12.9
- VT median ([7]; Hippocampus): 11.5
- VT median ([7]; IFG): 14.8
- VT median ([7]; Pallidum): 15.8
- VT median ([7]; Pons): 4.4
- VT median ([7]; Thalamus): 13.2
- VT median ([8]; ACG): 14.4
- VT median ([8]; Accumbens): 13.9
- VT median ([8]; Hippocampus): 12.4
- VT median ([8]; IFG): 13.9
- VT median ([8]; Pallidum): 15.7
- VT median ([8]; Pons): 6.0
- VT median ([8]; Thalamus): 9.6
- effective dose per scan [9]: ~ 1.7 mSv
